Measured values published in ChEMBL document CHEMBL1201862, “PubChem BioAssay data set” (2004).
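All cell lines were grown in 96-well plates and treated with compound for 48 hours. The concentration for 50% growth inhibition is given as GI50.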 Active and inactive are the calls of the source. Cut-off read from the data, not from the text of the source: active = GI50 up to about 1.1 µM and inactive = higher.

Experiments:
Test in all cases: inhibition of tumour cell growth, NCI panel, 48 h
CAKI-1 = system: CAKI-1
HOP-62 = system: HOP-62
SNB-75 = system: SNB-75
786-0 = system: 786-0
SF-268 = system: SF-268
UO-31 = system: UO-31
A498 = system: A498
SF-539 = system: SF-539
SK-MEL-5 = system: SK-MEL-5
LXFL 529 = system: LXFL 529
UACC-62 = system: UACC-62
IGROV-1 = system: IGROV-1
SW-620 = system: SW-620
SNB-19 = system: SNB-19
NCI-H226 = system: NCI-H226
HOP-18 = system: HOP-18
DMS-273 = system: DMS-273
SK-MEL-28 = system: SK-MEL-28
HT-29 = system: HT-29
RPMI-8226 = system: RPMI-8226
COLO 205 = system: COLO 205
OVCAR-3 = system: OVCAR-3
EKVX = system: EKVX
RXF 631 = system: RXF 631
SK-MEL-2 = system: SK-MEL-2
OVCAR-4 = system: OVCAR-4
A549 = system: A549
KM12 = system: KM12
SR = system: SR
OVCAR-8 = system: OVCAR-8
MOLT-4 = system: MOLT-4
SK-OV-3 = system: SK-OV-3
LOX IMVI = system: LOX IMVI
HL-60 = system: HL-60
XF498 = system: XF498
M14 = system: M14
DLD-1 = system: DLD-1
U-251 = system: U-251
NCI-H522 = system: NCI-H522
SN12C = system: SN12C
NCI-H23 = system: NCI-H23
OVCAR-5 = system: OVCAR-5
ACHN = system: ACHN
KM-20L2 = system: KM-20L2
M19-MEL = system: M19-MEL
SF-295 = system: SF-295
SNB-78 = system: SNB-78
DMS-114 = system: DMS-114
NCI-H460 = system: NCI-H460
HCT-116 = system: HCT-116
TK-10 = system: TK-10
HCT-15 = system: HCT-15
K562 = system: K562
UACC-257 = system: UACC-257
CCRF-CEM = system: CCRF-CEM
HOP-92 = system: HOP-92
HCC 2998 = system: HCC 2998
Malme-3M = system: Malme-3M

CC(=O)NC1C(OCc2ccccc2)OC(COC(=O)CCCCCCCCCCNC(=O)c2cccc3c(=O)c4ccccc4[nH]c23)C(O)C1OC(C)C(=O)NC(C)C(=O)NC(CCC(N)=O)C(N)=O (centres undefined)
GI50 (CAKI-1): > 100 µM (inactive) | GI50 (HOP-62): > 100 µM (inactive) | GI50 (SNB-75): 56.9 µM (inactive) | GI50 (786-0): > 100 µM (inactive) | GI50 (SF-268): > 100 µM (inactive) | GI50 (UO-31): > 100 µM (inactive) | GI50 (A498): 98.6 µM (inactive) | GI50 (SF-539): 92.9 µM (inactive) | GI50 (SK-MEL-5): 37.4 µM (inactive) | GI50 (LXFL 529): 37.3 µM (inactive) | GI50 (UACC-62): 35.2 µM (inactive) | GI50 (IGROV-1): 50.1 µM (inactive) | GI50 (SW-620): 96.6 µM (inactive) | GI50 (SNB-19): 47.3 µM (inactive) | GI50 (NCI-H226): 38.7 µM (inactive) | GI50 (HOP-18): 59 µM (inactive) | GI50 (DMS-273): 57.8 µM (inactive) | GI50 (SK-MEL-28): 47.3 µM (inactive) | GI50 (HT-29): 75.9 µM (inactive) | GI50 (RPMI-8226): 32.1 µM (inactive) | GI50 (COLO 205): 85.3 µM (inactive) | GI50 (OVCAR-3): 43.8 µM (inactive) | GI50 (EKVX): > 100 µM (inactive) | GI50 (RXF 631): 19.5 µM (inactive) | GI50 (SK-MEL-2): 50.8 µM (inactive) | GI50 (OVCAR-4): 61 µM (inactive) | GI50 (A549): 40.9 µM (inactive) | GI50 (KM12): 49.1 µM (inactive) | GI50 (SR): 40.1 µM (inactive) | GI50 (OVCAR-8): 94.8 µM (inactive) | GI50 (MOLT-4): 47.1 µM (inactive) | GI50 (SK-OV-3): > 100 µM (inactive) | GI50 (LOX IMVI): 49.3 µM (inactive) | GI50 (HL-60): > 100 µM (inactive) | GI50 (XF498): 38.7 µM (inactive) | GI50 (M14): > 100 µM (inactive) | GI50 (DLD-1): 95.9 µM (inactive) | GI50 (U-251): 69.5 µM (inactive) | GI50 (NCI-H522): 89.1 µM (inactive) | GI50 (SN12C): > 100 µM (inactive) | GI50 (NCI-H23): 46.1 µM (inactive) | GI50 (OVCAR-5): > 100 µM (inactive) | GI50 (ACHN): 55.8 µM (inactive) | GI50 (KM-20L2): > 100 µM (inactive) | GI50 (M19-MEL): 75.5 µM (inactive) | GI50 (SF-295): 71.1 µM (inactive) | GI50 (SNB-78): 99.1 µM (inactive) | GI50 (DMS-114): 36.3 µM (inactive) | GI50 (NCI-H460): 61.5 µM (inactive) | GI50 (HCT-116): 79.8 µM (inactive) | GI50 (TK-10): > 100 µM (inactive) | GI50 (HCT-15): 85.3 µM | GI50 (K562): 35.6 µM (inactive) | GI50 (UACC-257): > 100 µM (inactive)

CCN(CC)C(=O)CC12CCCCC1=Nc1ccccc12 (centres undefined)
GI50 (CAKI-1): > 100 µM (inactive) | GI50 (HOP-62): > 100 µM (inactive) | GI50 (SNB-75): > 100 µM (inactive) | GI50 (786-0): > 100 µM (inactive) | GI50 (A498): > 100 µM (inactive) | GI50 (SF-539): > 100 µM (inactive) | GI50 (SK-MEL-5): > 100 µM (inactive) | GI50 (LXFL 529): > 100 µM (inactive) | GI50 (UACC-62): > 100 µM (inactive) | GI50 (IGROV-1): > 100 µM (inactive) | GI50 (SW-620): > 100 µM (inactive) | GI50 (HOP-18): > 100 µM (inactive) | GI50 (DMS-273): > 100 µM (inactive) | GI50 (SK-MEL-28): > 100 µM (inactive) | GI50 (HT-29): > 100 µM (inactive) | GI50 (RPMI-8226): > 100 µM (inactive) | GI50 (COLO 205): > 100 µM (inactive) | GI50 (OVCAR-3): > 100 µM (inactive) | GI50 (EKVX): > 100 µM (inactive) | GI50 (RXF 631): > 100 µM (inactive) | GI50 (SK-MEL-2): > 100 µM (inactive) | GI50 (OVCAR-4): > 100 µM (inactive) | GI50 (A549): > 100 µM (inactive) | GI50 (KM12): > 100 µM (inactive) | GI50 (OVCAR-8): > 100 µM (inactive) | GI50 (MOLT-4): > 100 µM (inactive) | GI50 (SK-OV-3): > 100 µM (inactive) | GI50 (LOX IMVI): > 100 µM (inactive) | GI50 (CCRF-CEM): > 100 µM (inactive) | GI50 (HL-60): > 100 µM (inactive) | GI50 (XF498): > 100 µM (inactive) | GI50 (M14): > 100 µM (inactive) | GI50 (DLD-1): > 100 µM (inactive) | GI50 (U-251): > 100 µM (inactive) | GI50 (HOP-92): 51.6 µM (inactive) | GI50 (NCI-H23): > 100 µM (inactive) | GI50 (OVCAR-5): > 100 µM (inactive) | GI50 (HCC 2998): > 100 µM (inactive) | GI50 (ACHN): > 100 µM (inactive) | GI50 (KM-20L2): > 100 µM (inactive) | GI50 (M19-MEL): > 100 µM (inactive) | GI50 (SF-295): > 100 µM (inactive) | GI50 (SNB-78): > 100 µM (inactive) | GI50 (Malme-3M): > 100 µM (inactive) | GI50 (NCI-H460): > 100 µM (inactive) | GI50 (HCT-116): > 100 µM (inactive) | GI50 (TK-10): > 100 µM (inactive) | GI50 (HCT-15): > 100 µM | GI50 (K562): > 100 µM (inactive) | GI50 (UACC-257): > 100 µM (inactive)
